Experimental data from PubChem BioAssay (NCI).
Values joined by “and” are separate entries in the source; they are usually repeats but may differ in a detail not shown here. Equal entries are not always repeated.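 Assay format: 96-well plates, 48-hour exposure. At the GI50, growth is halved. At the TGI there is no net growth.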

What was measured:
Assay in all cases: NCI anticancer screen, dose series, 48 h
COLO 205 colon = tested on: COLO 205 colon
OVCAR-8 ovarian = tested on: OVCAR-8 ovarian
ACHN renal = tested on: ACHN renal
KM20L2 colon = tested on: KM20L2 colon
XF 498 CNS = tested on: XF 498 CNS
SF-539 CNS = tested on: SF-539 CNS
SN12C renal = tested on: SN12C renal
SNB-75 CNS = tested on: SNB-75 CNS
OVCAR-4 ovarian = tested on: OVCAR-4 ovarian
SF-295 CNS = tested on: SF-295 CNS
OVCAR-3 ovarian = tested on: OVCAR-3 ovarian
UACC-257 melanoma = tested on: UACC-257 melanoma
CCRF-CEM leukemia = tested on: CCRF-CEM leukemia
T-47D breast = tested on: T-47D breast
RPMI-8226 leukemia = tested on: RPMI-8226 leukemia
RXF 393 renal = tested on: RXF 393 renal
IGROV1 ovarian = tested on: IGROV1 ovarian
HCT-116 colon = tested on: HCT-116 colon
HCT-15 colon = tested on: HCT-15 colon
MOLT-4 leukemia = tested on: MOLT-4 leukemia
SK-MEL-5 melanoma = tested on: SK-MEL-5 melanoma
RXF-631 renal = tested on: RXF-631 renal
SK-MEL-28 melanoma = tested on: SK-MEL-28 melanoma
HCC-2998 colon = tested on: HCC-2998 colon
SK-MEL-2 melanoma = tested on: SK-MEL-2 melanoma
SW-620 colon = tested on: SW-620 colon
NCI-H226 lung = tested on: NCI-H226 lung
MDA-MB-231 breast = tested on: MDA-MB-231 breast
MALME-3M melanoma = tested on: MALME-3M melanoma
786-0 renal = tested on: 786-0 renal
M19-MEL melanoma = tested on: M19-MEL melanoma
BT-549 breast = tested on: BT-549 breast
DU-145 prostate = tested on: DU-145 prostate
HT29 colon = tested on: HT29 colon
MCF7 breast = tested on: MCF7 breast
LOX IMVI melanoma = tested on: LOX IMVI melanoma
HOP-18 NSCLC = tested on: HOP-18 NSCLC
DLD-1 colon = tested on: DLD-1 colon
A498 renal = tested on: A498 renal
HS 578T breast = tested on: HS 578T breast
UO-31 renal = tested on: UO-31 renal
KM12 colon = tested on: KM12 colon
K-562 leukemia = tested on: K-562 leukemia
NCI-H522 lung = tested on: NCI-H522 lung
TK-10 renal = tested on: TK-10 renal
SNB-19 CNS = tested on: SNB-19 CNS
SNB-78 CNS = tested on: SNB-78 CNS
MDA-N = tested on: MDA-N
HL-60(TB) leukemia = tested on: HL-60(TB) leukemia
UACC-62 melanoma = tested on: UACC-62 melanoma
A549 NSCLC = tested on: A549 NSCLC
SF-268 CNS = tested on: SF-268 CNS
SK-OV-3 ovarian = tested on: SK-OV-3 ovarian
HOP-92 NSCLC = tested on: HOP-92 NSCLC
EKVX NSCLC = tested on: EKVX NSCLC
U251 CNS = tested on: U251 CNS
HOP-62 NSCLC = tested on: HOP-62 NSCLC
LXFL 529 NSCLC = tested on: LXFL 529 NSCLC
DMS 273 small cell lung = tested on: DMS 273 small cell lung
PC-3 prostate = tested on: PC-3 prostate
CAKI-1 renal = tested on: CAKI-1 renal
NCI-H460 lung = tested on: NCI-H460 lung
NCI-H23 lung = tested on: NCI-H23 lung
OVCAR-5 ovarian = tested on: OVCAR-5 ovarian
M14 melanoma = tested on: M14 melanoma

With `N=S(c1ccccc1[N+](=O)[O-])c1ccccc1[N+](=O)[O-]` the TGI (COLO 205 colon) was 2.77 µM and 4.12 µM, the TGI (OVCAR-8 ovarian) was 5.4 µM and 13.1 µM and the TGI (ACHN renal) was 3.22 µM and 3.61 µM. The GI50 (KM20L2 colon) was 5.21 µM and 12.9 µM, the TGI (KM20L2 colon) was 11.2 µM and 27.4 µM and the GI50 (XF 498 CNS) was 4.84 µM and 2.14 µM. For the same molecule, the TGI (XF 498 CNS) was 11.5 µM and 6.15 µM, the TGI (SF-539 CNS) was 6.9 µM and 9.89 µM and the TGI (SN12C renal) was 2.89 µM and 3.19 µM. For the same molecule, the TGI (SNB-75 CNS) was 20.5 µM and 15.6 µM, the TGI (OVCAR-4 ovarian) was 2.05 µM and 1.11 µM and the GI50 (SF-295 CNS) was 2.45 µM and 5.99 µM. For the same molecule, the TGI (SF-295 CNS) was 6.16 µM and 15.4 µM, the TGI (OVCAR-3 ovarian) was 1.63 µM and 3.05 µM and the TGI (UACC-257 melanoma) was 6.51 µM and 10.1 µM. The TGI (CCRF-CEM leukemia) was 7.79 µM and 2.7 µM, the TGI (T-47D breast) was 0.934 µM and the GI50 (RPMI-8226 leukemia) was 3.93 µM. The TGI (RPMI-8226 leukemia) was 4.47 µM and 18.8 µM, the TGI (RXF 393 renal) was 5.6 µM and 14.4 µM and the TGI (IGROV1 ovarian) was 4.49 µM and 6.5 µM. The TGI (HCT-116 colon) was 3.28 µM and 3.58 µM, the TGI (HCT-15 colon) was 2.06 µM and 3.72 µM and the GI50 (MOLT-4 leukemia) was 3.93 µM. The TGI (MOLT-4 leukemia) was 4.7 µM and 20.4 µM, the TGI (SK-MEL-5 melanoma) was 3.83 µM and 8.22 µM and the TGI (RXF-631 renal) was 3.43 µM. For the same molecule, the TGI (SK-MEL-28 melanoma) was 10.9 µM and 11.3 µM, the TGI (HCC-2998 colon) was 7.11 µM and 9.66 µM and the TGI (SK-MEL-2 melanoma) was 7.97 µM and 9.86 µM. The GI50 (SW-620 colon) was 1.14 µM and 2.47 µM, the TGI (SW-620 colon) was 2.95 µM and 10 µM and the GI50 (NCI-H226 lung) was 12.6 µM. The TGI (NCI-H226 lung) was 12.3 µM and 30.1 µM, the TGI (MDA-MB-231 breast) was 3.4 µM and the TGI (MALME-3M melanoma) was 6.1 µM and 7.33 µM. The TGI (786-0 renal) was 3.93 µM and 4.67 µM, the TGI (M19-MEL melanoma) was 12.3 µM and 6.84 µM and the TGI (BT-549 breast) was 3.13 µM. For the same molecule, the TGI (DU-145 prostate) was 7.38 µM, the GI50 (HT29 colon) was 1.54 µM and 3.83 µM and the TGI (HT29 colon) was 5.16 µM and 8.69 µM. The TGI (MCF7 breast) was 0.266 µM, the TGI (LOX IMVI melanoma) was 1.68 µM and 2.58 µM and the TGI (HOP-18 NSCLC) was 19.5 µM and 15.8 µM. The GI50 (DLD-1 colon) was 1.81 µM and 0.636 µM, the TGI (DLD-1 colon) was 4.15 µM and 2.08 µM and the TGI (A498 renal) was 43.5 µM and 32.2 µM. The TGI (HS 578T breast) was over 100 µM, the TGI (UO-31 renal) was 3.94 µM and 7.44 µM and the TGI (KM12 colon) was 7.31 µM and 16.7 µM. The GI50 (K-562 leukemia) was 2.19 µM, the TGI (K-562 leukemia) was 7.29 µM and the TGI (NCI-H522 lung) was 1.2 µM and 1.1 µM. The TGI (TK-10 renal) was 7.42 µM and 6.53 µM, the TGI (SNB-19 CNS) was 22.5 µM and 20.9 µM and the TGI (SNB-78 CNS) was 9.2 µM and 8.28 µM. The TGI (MDA-N) was 2.83 µM, the TGI (HL-60(TB) leukemia) was 2.57 µM and 3.39 µM and the TGI (UACC-62 melanoma) was 9.13 µM and 10.2 µM. The TGI (A549 NSCLC) was 9.72 µM and 15.6 µM, the TGI (SF-268 CNS) was 11.9 µM and 5.94 µM and the TGI (SK-OV-3 ovarian) was 17 µM and 15.7 µM. For the same molecule, the TGI (HOP-92 NSCLC) was 4.02 µM and 4.39 µM, the TGI (EKVX NSCLC) was 11 µM and 20.8 µM and the GI50 (U251 CNS) was 14.5 µM and 16 µM. For the same molecule, the TGI (U251 CNS) was 27.7 µM and 29.5 µM, the TGI (HOP-62 NSCLC) was 8.51 µM and 10.8 µM and the TGI (LXFL 529 NSCLC) was 7.83 µM and 5.92 µM. The TGI (DMS 273 small cell lung) was 5.15 µM and 7.87 µM, the TGI (PC-3 prostate) was 2.98 µM and the TGI (CAKI-1 renal) was 4.19 µM and 12 µM. The GI50 (NCI-H460 lung) was 7.83 µM and 14.4 µM, the TGI (NCI-H460 lung) was 21.5 µM and 32 µM and the TGI (NCI-H23 lung) was 6.77 µM and 11 µM. The TGI (OVCAR-5 ovarian) was 7.69 µM and 11.8 µM and the TGI (M14 melanoma) was 8.88 µM and 16.4 µM.
